Measurements from US7541360B2, “4-amino-7,8-dihydropteridines, pharmaceutical compositions containing them and their use for the treatment of diseases which are caused by an increased nitric oxide level” (Vasopharm GmbH, priority 2003, dated 2009).

Assay: In vivo stability: half-life for blood clearance after intravenous injection, venous blood analysed by LC-MS/MS
Conditions: i.v. 1-10 mg/kg, male Sprague-Dawley rats; for t1/2 (dihydro), half-life for blood clearance: corresponding dihydro-derivative formed spontaneously in vivo from the injected tetrahydro-compound, venous blood; for t1/2 (tetrahydro), half-life for blood clearance: injected tetrahydro-compound, venous blood up to eight hours
Protocol: The compounds 4-N-cyclohexylmethylamino-5,6,7,8-tetrahydrobiopterin (compound A), 2-amino-4-piperidino-6-phenyl-(R,S)-5,6,7,8-tetrahydropteridin (compound B) and 2-amino-4-di-n-propylamino-6-(4-methoxyphenyl)-(R,S)-5,6,7,8-tetrahydropteridin (compound C) were intravenously injected into male Sprague-Dawley rats (1-10 mg/kg). Venous blood samples were taken up to eight hours after the injections and analyzed for the injected tetrahydro-compounds and for their corresponding dihydro-derivatives, which are spontaneously formed in vivo, by LC-MS/MS.

| t1/2 (dihydro), half-life for blood clearance [min] | t1/2 (tetrahydro), half-life for blood clearance | Molecule |
| --- | --- | --- |
| ~20 | <<5 min | Nc1nc2c(c(N3CCCCC3)n1)NC(c1ccccc1)CN2 (racemic) [Compound B, 2-amino-4-piperidino-6-phenyl-(R,S)-5,6,7,8-tetrahydropteridin] |
| 48 | <<5 min | CC(O)C(O)C1CNc2nc(N)nc(NCC3CCCCC3)c2N1 (stereo not drawn) [Compound A, 4-N-cyclohexylmethylamino-5,6,7,8-tetrahydrobiopterin] |
| ~30 | <<5 min | 2-amino-4-di-n-propylamino-6-(4-methoxyphenyl)-(R,S)-5,6,7,8-tetrahydropteridin [Compound C] |
